In patent US7655665B2, “Nitromethylene derivatives and their use” (East China University of Science and Technology, priority 2004, dated 2010):

Legend:
Aphis craccivoral = experiment: Insecticidal activity against Aphis craccivoral by immersing (dipping aphids on bean sprout); assay type: in vivo; settings: 500 ppm (500 ug/mL dilution), dipped 5 seconds, killed aphis counted after 24 hours, 23° C.
In short: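 Wingless adult A. craccivora feeding on bean sprouts dipped 5 seconds in compound at 500 ug/mL (0.2 mL/L Triton X-100 aqueous), then held at 23 °C. Mortality counted after 24 hours, three replicates, vehicle-only control.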

Nilaparvata lugens = experiment: Insecticidal activity against Nilaparvata lugens (planthopper) by spraying; assay type: in vivo; settings: 500 ppm, spraying 2 ml per tumbler, killed counted after 24 hours
In short: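 Ten planthoppers per tumbler were introduced 6 hours before spraying with 2 ml of test solution, with clean water as blank control. Each treatment had 3 replicates, and three series were run. Mortality was counted after 24 hours.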

CCCN=C1CCC([N+](=O)[O-])=C2N(Cc3ccc(Cl)nc3)CCN12 [Compound 192]
mortality (%) (500 ppm) Aphis (Aphis craccivoral): 86%
mortality (%) (500 ppm) Nilaparvata-lugens (Nilaparvata lugens): 100%

CC(C)N=C1CCC([N+](=O)[O-])=C2N(Cc3ccc(Cl)nc3)CCN12 [Compound 193]
mortality (%) (500 ppm) Aphis (Aphis craccivoral): 93%
mortality (%) (500 ppm) Nilaparvata-lugens (Nilaparvata lugens): 98%

CCCCN=C1CCC([N+](=O)[O-])=C2N(Cc3ccc(Cl)nc3)CCN12 [Compound 194]
mortality (%) (500 ppm) Aphis (Aphis craccivoral): 34%
mortality (%) (500 ppm) Nilaparvata-lugens (Nilaparvata lugens): 45%

CCCCCN=C1CCC([N+](=O)[O-])=C2N(Cc3ccc(Cl)nc3)CCN12 [Compound 195]
mortality (%) (500 ppm) Aphis (Aphis craccivoral): 46%
mortality (%) (500 ppm) Nilaparvata-lugens (Nilaparvata lugens): 78%

CC(C)CCN=C1CCC([N+](=O)[O-])=C2N(Cc3ccc(Cl)nc3)CCN12 [Compound 196]
mortality (%) (500 ppm) Aphis (Aphis craccivoral): 12%
mortality (%) (500 ppm) Nilaparvata-lugens (Nilaparvata lugens): 25%

CCCC(C)N=C1CCC([N+](=O)[O-])=C2N(Cc3ccc(Cl)nc3)CCN12 (stereo not drawn) [Compound 197]
mortality (%) (500 ppm) Aphis (Aphis craccivoral): 8%
mortality (%) (500 ppm) Nilaparvata-lugens (Nilaparvata lugens): 56%

CC(C)(C)CN=C1CCC([N+](=O)[O-])=C2N(Cc3ccc(Cl)nc3)CCN12 [Compound 198]
mortality (%) (500 ppm) Aphis (Aphis craccivoral): 39%
mortality (%) (500 ppm) Nilaparvata-lugens (Nilaparvata lugens): 89%

COCCN=C1CCC([N+](=O)[O-])=C2N(Cc3ccc(Cl)nc3)CCN12 [Compound 199]
mortality (%) (500 ppm) Aphis (Aphis craccivoral): 16%
mortality (%) (500 ppm) Nilaparvata-lugens (Nilaparvata lugens): 36%

CCOCCN=C1CCC([N+](=O)[O-])=C2N(Cc3ccc(Cl)nc3)CCN12 [Compound 200]
mortality (%) (500 ppm) Aphis (Aphis craccivoral): 45%
mortality (%) (500 ppm) Nilaparvata-lugens (Nilaparvata lugens): 78%

N=C1CCC([N+](=O)[O-])=C2N(Cc3ccc(Cl)nc3)CCCN12 [Compound 201]
mortality (%) (500 ppm) Aphis (Aphis craccivoral): 54%
mortality (%) (500 ppm) Nilaparvata-lugens (Nilaparvata lugens): 55%

CN=C1CCC([N+](=O)[O-])=C2N(Cc3ccc(Cl)nc3)CCCN12 [Compound 202]
mortality (%) (500 ppm) Aphis (Aphis craccivoral): 89%
mortality (%) (500 ppm) Nilaparvata-lugens (Nilaparvata lugens): 98%

CCN=C1CCC([N+](=O)[O-])=C2N(Cc3ccc(Cl)nc3)CCCN12 [Compound 203]
mortality (%) (500 ppm) Aphis (Aphis craccivoral): 92%
mortality (%) (500 ppm) Nilaparvata-lugens (Nilaparvata lugens): 100%

O=[N+]([O-])C1=C2N(Cc3ccc(Cl)nc3)CCCN2C(=NCCCl)CC1 [Compound 204]
mortality (%) (500 ppm) Aphis (Aphis craccivoral): 46%
mortality (%) (500 ppm) Nilaparvata-lugens (Nilaparvata lugens): 78%

CCCN=C1CCC([N+](=O)[O-])=C2N(Cc3ccc(Cl)nc3)CCCN12 [Compound 205]
mortality (%) (500 ppm) Aphis (Aphis craccivoral): 35%
mortality (%) (500 ppm) Nilaparvata-lugens (Nilaparvata lugens): 100%

CC(C)N=C1CCC([N+](=O)[O-])=C2N(Cc3ccc(Cl)nc3)CCCN12 [Compound 206]
mortality (%) (500 ppm) Aphis (Aphis craccivoral): 56%
mortality (%) (500 ppm) Nilaparvata-lugens (Nilaparvata lugens): 98%

CCCCN=C1CCC([N+](=O)[O-])=C2N(Cc3ccc(Cl)nc3)CCCN12 [Compound 207]
mortality (%) (500 ppm) Aphis (Aphis craccivoral): 14%
mortality (%) (500 ppm) Nilaparvata-lugens (Nilaparvata lugens): 45%

CCCCCN=C1CCC([N+](=O)[O-])=C2N(Cc3ccc(Cl)nc3)CCCN12 [Compound 208]
mortality (%) (500 ppm) Aphis (Aphis craccivoral): 35%
mortality (%) (500 ppm) Nilaparvata-lugens (Nilaparvata lugens): 67%

CC(C)CCN=C1CCC([N+](=O)[O-])=C2N(Cc3ccc(Cl)nc3)CCCN12 [Compound 209]
mortality (%) (500 ppm) Aphis (Aphis craccivoral): 23%
mortality (%) (500 ppm) Nilaparvata-lugens (Nilaparvata lugens): 26%

CCCC(C)N=C1CCC([N+](=O)[O-])=C2N(Cc3ccc(Cl)nc3)CCCN12 (stereo not drawn) [Compound 210]
mortality (%) (500 ppm) Aphis (Aphis craccivoral): 7%
mortality (%) (500 ppm) Nilaparvata-lugens (Nilaparvata lugens): 77%

CC(C)(C)CN=C1CCC([N+](=O)[O-])=C2N(Cc3ccc(Cl)nc3)CCCN12 [Compound 211]
mortality (%) (500 ppm) Aphis (Aphis craccivoral): 34%
mortality (%) (500 ppm) Nilaparvata-lugens (Nilaparvata lugens): 56%

N=C1CCC([N+](=O)[O-])=C2N(Cc3cnc(Cl)s3)CCN12 [Compound 212]
mortality (%) (500 ppm) Aphis (Aphis craccivoral): 34%
mortality (%) (500 ppm) Nilaparvata-lugens (Nilaparvata lugens): 23%

CN=C1CCC([N+](=O)[O-])=C2N(Cc3cnc(Cl)s3)CCN12 [Compound 213]
mortality (%) (500 ppm) Aphis (Aphis craccivoral): 32%
mortality (%) (500 ppm) Nilaparvata-lugens (Nilaparvata lugens): 78%

CCN=C1CCC([N+](=O)[O-])=C2N(Cc3cnc(Cl)s3)CCN12 [Compound 214]
mortality (%) (500 ppm) Aphis (Aphis craccivoral): 55%
mortality (%) (500 ppm) Nilaparvata-lugens (Nilaparvata lugens): 90%

O=[N+]([O-])C1=C2N(Cc3cnc(Cl)s3)CCN2C(=NCCCl)CC1 [Compound 215]
mortality (%) (500 ppm) Aphis (Aphis craccivoral): 9%
mortality (%) (500 ppm) Nilaparvata-lugens (Nilaparvata lugens): 97%

CCCCN=C1CCC([N+](=O)[O-])=C2N(Cc3cnc(Cl)s3)CCN12 [Compound 216]
mortality (%) (500 ppm) Aphis (Aphis craccivoral): 66%
mortality (%) (500 ppm) Nilaparvata-lugens (Nilaparvata lugens): 98%

CCCN=C1CCC([N+](=O)[O-])=C2N(Cc3cnc(Cl)s3)CCN12 [Compound 217]
mortality (%) (500 ppm) Aphis (Aphis craccivoral): 23%
mortality (%) (500 ppm) Nilaparvata-lugens (Nilaparvata lugens): 100%

CCCCCN=C1CCC([N+](=O)[O-])=C2N(Cc3cnc(Cl)s3)CCN12 [Compound 218]
mortality (%) (500 ppm) Aphis (Aphis craccivoral): 45%
mortality (%) (500 ppm) Nilaparvata-lugens (Nilaparvata lugens): 67%

CC(C)N=C1CCC([N+](=O)[O-])=C2N(Cc3cnc(Cl)s3)CCN12 [Compound 219]
mortality (%) (500 ppm) Aphis (Aphis craccivoral): 34%
mortality (%) (500 ppm) Nilaparvata-lugens (Nilaparvata lugens): 45%

N=C1CCC([N+](=O)[O-])=C2N(Cc3cnc(Cl)s3)CCCN12 [Compound 220]
mortality (%) (500 ppm) Aphis (Aphis craccivoral): 16%
mortality (%) (500 ppm) Nilaparvata-lugens (Nilaparvata lugens): 56%

CN=C1CCC([N+](=O)[O-])=C2N(Cc3cnc(Cl)s3)CCCN12 [Compound 221]
mortality (%) (500 ppm) Aphis (Aphis craccivoral): 4%
mortality (%) (500 ppm) Nilaparvata-lugens (Nilaparvata lugens): 67%

CCN=C1CCC([N+](=O)[O-])=C2N(Cc3cnc(Cl)s3)CCCN12 [Compound 222]
mortality (%) (500 ppm) Aphis (Aphis craccivoral): 4%
mortality (%) (500 ppm) Nilaparvata-lugens (Nilaparvata lugens): 89%

O=[N+]([O-])C1=C2N(Cc3cnc(Cl)s3)CCCN2C(=NCCCl)CC1 [Compound 223]
mortality (%) (500 ppm) Aphis (Aphis craccivoral): 5%
mortality (%) (500 ppm) Nilaparvata-lugens (Nilaparvata lugens): 76%

CCCCN=C1CCC([N+](=O)[O-])=C2N(Cc3cnc(Cl)s3)CCCN12 [Compound 224]
mortality (%) (500 ppm) Aphis (Aphis craccivoral): 45%
mortality (%) (500 ppm) Nilaparvata-lugens (Nilaparvata lugens): 66%

CCCN=C1CCC([N+](=O)[O-])=C2N(Cc3cnc(Cl)s3)CCCN12 [Compound 225]
mortality (%) (500 ppm) Aphis (Aphis craccivoral): 35%
mortality (%) (500 ppm) Nilaparvata-lugens (Nilaparvata lugens): 78%

CCCCCN=C1CCC([N+](=O)[O-])=C2N(Cc3cnc(Cl)s3)CCCN12 [Compound 226]
mortality (%) (500 ppm) Aphis (Aphis craccivoral): 22%
mortality (%) (500 ppm) Nilaparvata-lugens (Nilaparvata lugens): 57%

CC(C)N=C1CCC([N+](=O)[O-])=C2N(Cc3cnc(Cl)s3)CCCN12 [Compound 227]
mortality (%) (500 ppm) Aphis (Aphis craccivoral): 100%
mortality (%) (500 ppm) Nilaparvata-lugens (Nilaparvata lugens): 100%
